The source made the active and inactive calls.
Key:
Caspase-8 = Caspase-8 (Homo sapiens, UniProt Q14790); test: inhibitors of purified CASP8 protease – biochemical, Z-IETD-R110 fluorescence, cherry-picked samples, selectivity assay for caspase-6 inhibitor project, dose response (AID 743294)
[1] = biological target: Heat shock protein HSP 90-alpha (Homo sapiens, UniProt P07900); assay type: functional, organism-based
[2] = biological target: T1, Apoptotic protease-activating factor 1 (Homo sapiens, UniProt O14727); assay type: functional
T1 sequence (O14727 whole entry): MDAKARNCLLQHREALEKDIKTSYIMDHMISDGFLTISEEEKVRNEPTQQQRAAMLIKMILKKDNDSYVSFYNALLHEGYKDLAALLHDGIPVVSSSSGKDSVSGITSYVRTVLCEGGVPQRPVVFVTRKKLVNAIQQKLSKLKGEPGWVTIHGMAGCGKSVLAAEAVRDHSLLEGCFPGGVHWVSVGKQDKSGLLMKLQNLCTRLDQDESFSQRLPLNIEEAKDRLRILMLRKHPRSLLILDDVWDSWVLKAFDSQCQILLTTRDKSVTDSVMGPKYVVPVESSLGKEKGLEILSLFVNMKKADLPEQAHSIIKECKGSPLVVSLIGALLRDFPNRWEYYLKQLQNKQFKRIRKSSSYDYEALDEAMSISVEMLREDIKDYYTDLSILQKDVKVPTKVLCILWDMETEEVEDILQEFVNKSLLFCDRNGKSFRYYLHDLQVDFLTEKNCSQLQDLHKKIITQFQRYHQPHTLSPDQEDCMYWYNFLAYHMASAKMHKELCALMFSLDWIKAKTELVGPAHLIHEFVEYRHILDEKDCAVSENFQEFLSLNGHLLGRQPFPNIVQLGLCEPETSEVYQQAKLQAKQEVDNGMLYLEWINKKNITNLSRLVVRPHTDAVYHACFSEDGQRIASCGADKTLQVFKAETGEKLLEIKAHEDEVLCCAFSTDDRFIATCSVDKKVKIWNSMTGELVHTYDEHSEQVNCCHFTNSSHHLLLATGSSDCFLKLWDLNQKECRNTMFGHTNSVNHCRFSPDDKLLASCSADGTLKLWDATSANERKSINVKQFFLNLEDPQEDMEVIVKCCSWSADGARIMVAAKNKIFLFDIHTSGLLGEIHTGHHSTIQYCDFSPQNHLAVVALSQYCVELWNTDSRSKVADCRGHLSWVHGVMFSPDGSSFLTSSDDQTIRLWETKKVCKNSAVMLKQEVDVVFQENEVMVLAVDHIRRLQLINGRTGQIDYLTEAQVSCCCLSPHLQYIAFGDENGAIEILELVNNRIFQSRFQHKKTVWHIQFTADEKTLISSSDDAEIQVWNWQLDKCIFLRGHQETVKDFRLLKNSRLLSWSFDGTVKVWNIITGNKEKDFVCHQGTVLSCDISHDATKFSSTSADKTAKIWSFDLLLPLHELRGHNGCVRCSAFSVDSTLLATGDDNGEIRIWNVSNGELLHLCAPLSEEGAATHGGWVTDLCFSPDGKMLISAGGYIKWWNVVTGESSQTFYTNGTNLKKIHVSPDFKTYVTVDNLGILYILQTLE

[3] = biological target: T2, Sentrin-specific protease 7 (Homo sapiens, UniProt Q9BQF6); test: inhibition of human SENP7 cleavage activity – biochemical, luminescence, SAR follow-up (AID 504497); assay type: functional
T2 sequence (Q9BQF6 whole entry): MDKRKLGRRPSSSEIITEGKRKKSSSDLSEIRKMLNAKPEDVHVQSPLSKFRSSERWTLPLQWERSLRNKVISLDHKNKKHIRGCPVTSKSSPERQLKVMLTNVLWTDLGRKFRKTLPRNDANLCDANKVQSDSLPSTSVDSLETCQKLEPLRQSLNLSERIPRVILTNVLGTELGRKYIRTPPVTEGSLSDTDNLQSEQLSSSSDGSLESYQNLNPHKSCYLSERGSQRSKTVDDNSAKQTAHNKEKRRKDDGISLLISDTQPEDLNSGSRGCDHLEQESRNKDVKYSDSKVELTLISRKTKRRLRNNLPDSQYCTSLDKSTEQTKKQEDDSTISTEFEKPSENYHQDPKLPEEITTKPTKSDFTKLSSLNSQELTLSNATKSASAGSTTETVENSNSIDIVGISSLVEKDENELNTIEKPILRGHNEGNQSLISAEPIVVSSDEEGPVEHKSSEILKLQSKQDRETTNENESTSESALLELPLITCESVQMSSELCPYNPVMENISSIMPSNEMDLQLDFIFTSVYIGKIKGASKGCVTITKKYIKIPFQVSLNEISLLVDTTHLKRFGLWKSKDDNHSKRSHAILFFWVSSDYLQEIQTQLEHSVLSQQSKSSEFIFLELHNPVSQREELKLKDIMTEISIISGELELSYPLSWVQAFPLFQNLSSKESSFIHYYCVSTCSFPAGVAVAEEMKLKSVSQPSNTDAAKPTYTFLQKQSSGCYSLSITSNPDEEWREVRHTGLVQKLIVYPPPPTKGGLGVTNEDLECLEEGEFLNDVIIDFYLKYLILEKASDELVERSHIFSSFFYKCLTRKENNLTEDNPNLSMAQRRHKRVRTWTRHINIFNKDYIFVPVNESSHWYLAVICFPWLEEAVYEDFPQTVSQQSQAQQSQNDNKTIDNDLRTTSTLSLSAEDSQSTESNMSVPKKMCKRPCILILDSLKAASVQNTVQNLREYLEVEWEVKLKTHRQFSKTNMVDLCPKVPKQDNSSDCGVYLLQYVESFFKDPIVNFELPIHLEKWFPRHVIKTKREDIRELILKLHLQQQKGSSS

[4] = biological target: Megakaryocyte-associated tyrosine-protein kinase (Homo sapiens, UniProt P42679); assay type: functional;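 note: affinity measured as one member of a kinase panel (Navigating the Kinome) against MATK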
[5] = biological target: Ribosomal protein S6 kinase alpha-3 (Homo sapiens, UniProt P51812); assay type: functional;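 note: measured within a kinome-wide profiling panel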
Sequence of Ribosomal protein S6 kinase alpha-3 (P51812 whole entry): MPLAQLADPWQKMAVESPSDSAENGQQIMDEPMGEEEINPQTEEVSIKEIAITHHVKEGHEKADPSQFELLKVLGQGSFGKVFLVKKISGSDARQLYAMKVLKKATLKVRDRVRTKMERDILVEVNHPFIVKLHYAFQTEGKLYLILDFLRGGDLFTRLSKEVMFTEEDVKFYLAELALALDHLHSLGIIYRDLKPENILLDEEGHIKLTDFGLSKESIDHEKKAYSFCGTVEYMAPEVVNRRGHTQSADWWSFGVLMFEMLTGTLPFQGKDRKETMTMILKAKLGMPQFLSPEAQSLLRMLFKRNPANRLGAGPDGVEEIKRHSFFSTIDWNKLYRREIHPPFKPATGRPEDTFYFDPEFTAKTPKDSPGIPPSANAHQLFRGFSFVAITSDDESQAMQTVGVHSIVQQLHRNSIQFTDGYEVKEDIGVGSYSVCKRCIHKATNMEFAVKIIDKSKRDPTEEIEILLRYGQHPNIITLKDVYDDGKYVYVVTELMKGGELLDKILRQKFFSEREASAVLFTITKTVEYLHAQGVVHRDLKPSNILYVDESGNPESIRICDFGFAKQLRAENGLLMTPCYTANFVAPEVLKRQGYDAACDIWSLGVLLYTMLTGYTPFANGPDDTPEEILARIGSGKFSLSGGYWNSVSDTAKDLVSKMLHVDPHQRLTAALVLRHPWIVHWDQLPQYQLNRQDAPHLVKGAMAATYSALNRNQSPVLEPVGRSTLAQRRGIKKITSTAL

[6] = biological target: RAC-gamma serine/threonine-protein kinase (Homo sapiens, UniProt Q9Y243); assay type: functional
Sequence of RAC-gamma serine/threonine-protein kinase (Q9Y243 whole entry): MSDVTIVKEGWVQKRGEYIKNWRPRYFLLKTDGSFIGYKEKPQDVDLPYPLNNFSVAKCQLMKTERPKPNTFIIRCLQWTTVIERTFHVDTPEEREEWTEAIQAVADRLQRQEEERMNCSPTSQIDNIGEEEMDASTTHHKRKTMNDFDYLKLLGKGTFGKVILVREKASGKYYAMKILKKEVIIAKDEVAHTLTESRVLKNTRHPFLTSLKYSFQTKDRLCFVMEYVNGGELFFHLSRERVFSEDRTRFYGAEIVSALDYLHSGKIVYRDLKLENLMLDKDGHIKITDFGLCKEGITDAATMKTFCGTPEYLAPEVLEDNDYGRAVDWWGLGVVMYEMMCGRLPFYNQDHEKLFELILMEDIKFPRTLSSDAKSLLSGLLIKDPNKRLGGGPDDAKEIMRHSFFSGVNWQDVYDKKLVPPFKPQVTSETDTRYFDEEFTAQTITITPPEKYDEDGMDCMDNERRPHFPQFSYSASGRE

[7] = biological target: Serine/threonine-protein kinase PLK4 (Homo sapiens, UniProt O00444); assay type: functional;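 note: PLK4 measured as one member of a kinome-wide kinase profiling panel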
Sequence of Serine/threonine-protein kinase PLK4 (O00444 whole entry): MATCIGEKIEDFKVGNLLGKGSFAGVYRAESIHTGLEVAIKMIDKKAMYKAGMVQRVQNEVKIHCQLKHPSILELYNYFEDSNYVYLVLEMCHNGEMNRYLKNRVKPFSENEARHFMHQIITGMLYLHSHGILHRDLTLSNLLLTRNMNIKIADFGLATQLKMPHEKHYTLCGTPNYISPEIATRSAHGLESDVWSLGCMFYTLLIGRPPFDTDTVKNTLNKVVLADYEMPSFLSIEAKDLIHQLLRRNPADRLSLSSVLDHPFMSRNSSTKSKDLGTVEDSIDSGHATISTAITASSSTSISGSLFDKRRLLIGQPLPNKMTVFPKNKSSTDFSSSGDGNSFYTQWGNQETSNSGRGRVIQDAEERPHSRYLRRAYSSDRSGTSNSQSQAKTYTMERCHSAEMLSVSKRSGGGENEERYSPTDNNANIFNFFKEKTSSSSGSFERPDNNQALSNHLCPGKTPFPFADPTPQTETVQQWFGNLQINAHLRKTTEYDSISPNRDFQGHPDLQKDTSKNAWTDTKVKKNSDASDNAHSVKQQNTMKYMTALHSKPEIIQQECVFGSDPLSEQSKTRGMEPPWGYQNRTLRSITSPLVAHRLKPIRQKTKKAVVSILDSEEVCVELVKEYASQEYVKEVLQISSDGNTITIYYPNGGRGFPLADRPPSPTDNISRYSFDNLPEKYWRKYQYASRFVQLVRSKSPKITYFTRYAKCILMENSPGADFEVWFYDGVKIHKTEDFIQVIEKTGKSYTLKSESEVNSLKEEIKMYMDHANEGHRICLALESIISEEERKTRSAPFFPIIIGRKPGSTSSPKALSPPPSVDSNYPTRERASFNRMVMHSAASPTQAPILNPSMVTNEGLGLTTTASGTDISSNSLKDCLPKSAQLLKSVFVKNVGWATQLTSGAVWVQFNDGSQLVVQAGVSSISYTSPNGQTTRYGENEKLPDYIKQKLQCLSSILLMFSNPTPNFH

[8] = biological target: Serine/threonine-protein kinase TAO1 (Homo sapiens, UniProt Q7L7X3); assay type: functional
Sequence of Serine/threonine-protein kinase TAO1 (Q7L7X3 whole entry): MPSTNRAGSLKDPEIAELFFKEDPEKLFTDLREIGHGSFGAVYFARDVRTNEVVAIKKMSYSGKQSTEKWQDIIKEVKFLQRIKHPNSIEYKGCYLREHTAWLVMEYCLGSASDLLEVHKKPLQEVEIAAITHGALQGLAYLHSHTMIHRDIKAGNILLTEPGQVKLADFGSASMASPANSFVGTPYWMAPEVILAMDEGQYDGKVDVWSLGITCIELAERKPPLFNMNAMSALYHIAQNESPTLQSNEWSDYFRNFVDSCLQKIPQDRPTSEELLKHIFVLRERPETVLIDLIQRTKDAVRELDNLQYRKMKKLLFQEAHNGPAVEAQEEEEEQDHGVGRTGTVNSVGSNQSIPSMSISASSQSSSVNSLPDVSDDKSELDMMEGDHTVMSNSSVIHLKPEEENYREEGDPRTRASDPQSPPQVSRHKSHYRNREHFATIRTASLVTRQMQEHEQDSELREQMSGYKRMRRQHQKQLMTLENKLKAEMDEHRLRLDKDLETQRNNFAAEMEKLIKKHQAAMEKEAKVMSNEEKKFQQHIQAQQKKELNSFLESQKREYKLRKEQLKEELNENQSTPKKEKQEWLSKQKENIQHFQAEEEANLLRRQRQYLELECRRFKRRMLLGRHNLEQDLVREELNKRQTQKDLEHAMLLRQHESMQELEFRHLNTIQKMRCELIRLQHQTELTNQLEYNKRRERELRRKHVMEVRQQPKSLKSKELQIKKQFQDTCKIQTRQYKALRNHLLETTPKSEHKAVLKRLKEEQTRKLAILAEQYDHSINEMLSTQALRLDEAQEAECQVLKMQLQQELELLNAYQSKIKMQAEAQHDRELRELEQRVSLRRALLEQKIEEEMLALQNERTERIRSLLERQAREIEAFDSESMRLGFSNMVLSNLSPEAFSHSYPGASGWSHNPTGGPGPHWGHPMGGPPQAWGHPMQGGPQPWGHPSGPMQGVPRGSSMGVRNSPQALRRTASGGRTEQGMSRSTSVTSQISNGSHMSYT

[9] = biological target: Testis-specific serine/threonine-protein kinase 1 (Homo sapiens, UniProt Q9BXA7); assay type: functional
Sequence of Testis-specific serine/threonine-protein kinase 1 (Q9BXA7 whole entry): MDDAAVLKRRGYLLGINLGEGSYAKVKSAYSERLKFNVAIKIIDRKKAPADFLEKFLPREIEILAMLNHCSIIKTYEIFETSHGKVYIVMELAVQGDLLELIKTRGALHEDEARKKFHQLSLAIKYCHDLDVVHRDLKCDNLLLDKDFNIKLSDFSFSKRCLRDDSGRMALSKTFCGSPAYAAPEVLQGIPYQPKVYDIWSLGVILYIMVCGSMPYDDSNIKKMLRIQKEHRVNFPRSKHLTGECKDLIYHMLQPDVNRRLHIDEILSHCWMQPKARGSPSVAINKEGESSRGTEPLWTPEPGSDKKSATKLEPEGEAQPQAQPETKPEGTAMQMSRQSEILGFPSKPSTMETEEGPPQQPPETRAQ

[10] = biological target: 3-phosphoinositide-dependent protein kinase 1 (Homo sapiens, UniProt O15530); assay type: functional;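 note: value comes from the Navigating the Kinome panel, PDPK1 member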
Sequence of 3-phosphoinositide-dependent protein kinase 1 (O15530 whole entry): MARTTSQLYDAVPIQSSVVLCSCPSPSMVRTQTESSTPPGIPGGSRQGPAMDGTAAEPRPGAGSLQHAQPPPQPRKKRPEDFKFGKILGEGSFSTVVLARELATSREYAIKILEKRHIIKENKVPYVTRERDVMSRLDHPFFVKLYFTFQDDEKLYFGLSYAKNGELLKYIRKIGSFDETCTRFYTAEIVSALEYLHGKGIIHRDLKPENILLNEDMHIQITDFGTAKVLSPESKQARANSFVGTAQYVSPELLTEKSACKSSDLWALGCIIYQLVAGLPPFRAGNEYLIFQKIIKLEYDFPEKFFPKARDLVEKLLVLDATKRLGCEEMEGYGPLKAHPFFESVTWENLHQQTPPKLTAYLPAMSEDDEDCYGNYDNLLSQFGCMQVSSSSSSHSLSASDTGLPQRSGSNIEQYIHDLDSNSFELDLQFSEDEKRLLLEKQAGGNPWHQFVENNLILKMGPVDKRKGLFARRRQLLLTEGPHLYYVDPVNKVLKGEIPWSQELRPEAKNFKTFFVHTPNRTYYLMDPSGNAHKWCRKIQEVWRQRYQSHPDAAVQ

[11] = biological target: Glycogen synthase kinase-3 beta (Homo sapiens, UniProt P49841); assay type: functional;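 note: value comes from a broad kinome profiling panel, with GSK3B as the panel member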
Sequence of Glycogen synthase kinase-3 beta (P49841 whole entry): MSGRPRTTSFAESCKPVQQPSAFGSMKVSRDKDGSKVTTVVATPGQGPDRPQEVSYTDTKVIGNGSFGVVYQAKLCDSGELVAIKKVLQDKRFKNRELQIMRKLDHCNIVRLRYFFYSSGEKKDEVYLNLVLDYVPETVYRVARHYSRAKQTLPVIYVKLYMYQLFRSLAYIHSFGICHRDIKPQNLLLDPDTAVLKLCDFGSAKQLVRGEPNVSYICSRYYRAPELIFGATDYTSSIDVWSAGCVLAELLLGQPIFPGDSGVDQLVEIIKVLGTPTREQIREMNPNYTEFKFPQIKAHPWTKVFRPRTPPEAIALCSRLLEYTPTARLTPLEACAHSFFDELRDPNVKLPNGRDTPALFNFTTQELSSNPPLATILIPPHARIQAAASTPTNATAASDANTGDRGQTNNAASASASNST

[12] = biological target: cAMP-dependent protein kinase catalytic subunit alpha (Homo sapiens, UniProt P17612); assay type: functional

Sequence of Caspase-8 (Q14790 217-374 limits assumed): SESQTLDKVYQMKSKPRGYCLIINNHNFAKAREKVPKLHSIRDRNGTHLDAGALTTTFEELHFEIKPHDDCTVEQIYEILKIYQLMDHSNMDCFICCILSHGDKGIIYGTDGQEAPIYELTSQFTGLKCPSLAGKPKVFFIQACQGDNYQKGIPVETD
Sequence of Caspase-8 (Q14790 385-479 limits assumed): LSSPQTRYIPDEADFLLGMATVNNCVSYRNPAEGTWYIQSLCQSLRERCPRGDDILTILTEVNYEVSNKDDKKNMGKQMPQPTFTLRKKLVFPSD

Compound: O=C(COC(=O)c1ccc([N+](=O)[O-])s1)Nc1cccc(S(=O)(=O)/N=C2/CCCCCN2)c1
- AC50 (Caspase-8): 21.2 µM (active)

Compound: COc1ccc(C(C[N+](=O)[O-])c2c(C)[nH]n(-c3ccccc3)c2=O)cc1 (stereo not drawn)
- AC50 [1]: 7.91 µM (active)
- IC50 [2]: 14.6 µM (active)
- IC50 [3]: 12.3 µM (active)

Compound: Oc1c2ccccc2c2c3c(cccc13)N=N2 [SP-600125]
- Ki [4]: 0.501 µM (active)
- Ki [5]: 0.398 µM (active)
- Ki [6]: > 10 µM (inactive)
- Ki [7]: 0.2 µM (active)
- Ki [8]: 5.01 µM (active)
- Ki [9]: > 1.58 µM (inactive)
- Ki [10]: 0.631 µM (active)
- Ki [11]: 0.316 µM (active)
- Ki [12]: > 7.94 µM (inactive)
